Settings: human, microsomes, 1 h, 10 µM
Description: Metabolic stability in human liver microsomes at 10 uM preincubated for 5 mins followed by NADPH addition and measured upto 60 mins by LC-MS/MS method

## Cc1ncc2n1-c1ccc(Cl)cc1C(c1ccccc1F)=NC2 [MIDAZOLAM]
  Stability: Unstable

— ChEMBL document CHEMBL5550097, “Drug-drug conjugates of MEK and Akt inhibitors for RAS-mutant cancers” (Bioorg Med Chem, 2024)
